Measurements published in US10562842B2, “Use of polyaminoisoprenyl derivatives in antibiotic or antiseptic treatment” (UNIVERSITE D'AIX-MARSEILLE, priority 2011, dated 2020).
Values after ≈ are worked out from the molar mass of the structure shown.

Columns and labels:
[1] = system: ATCC 13048; experiment: MIC of antibiotics ± test compound (MIC ratio), micro-broth dilution; assay type: cell-based, Enterobacter aerogenes; conditions: compound at MIC/4; Example 4
Method: (§1) Susceptibilities to antibiotics and compounds were determined in microplates by broth dilution method, as previously described. Minimal Inhibitory Concentrations (MICs) were determined with an inoculum of 10^6 CFU in 200 μL of MH broth containing two-fold serial dilutions of each drug. […] All MIC determinations were repeated at least three times in independent experiments.
(§2) The MICs of chloramphenicol±test compounds (MIC/4) were determined by the micro-broth dilution method (9). All MIC determinations were repeated at least three times in independent experiments. The MIC ratio corresponds to the ratio of the MIC of an antibiotic alone to the MIC of the same antibiotic in the presence of the tested compound (at MIC/4).
(§3) For reminder, the MIC ratio corresponds to the ratio of the MIC of the assessed antibiotic alone to the MIC of the same antibiotic in the presence of the tested compound (at MIC/4).

[2] = system: CM64; experiment: as above; assay type: cell-based, Enterobacter aerogenes; conditions: compound at MIC/4; Example 4
Method: as §1, §2, §3

[3] = system: Ea27; experiment: as above; assay type: cell-based, Enterobacter aerogenes; conditions: compound at MIC/4; Example 4
Method: as §1, §2, §3

[4] = system: Pseudomonas and Actinebacter strains; experiment: MIC ratio, several strains; assay type: cell-based
Text: as §3

[5] = system: Enterobacter, Salmonella and Escherichia strains; experiment: MIC ratio, several strains; assay type: cell-based
Text: as §3

[6] = system: CHO cells; experiment: Toxicity on CHO cultured cells; assay type: cell-based; conditions: Cricetulus griseus; killing of 50% of the CHO cells after 24 hours of incubation
Method: The toxicity of each compound was determined on CHO cultured cells. Incubation of CHO cells was performed with serial dilution of compounds. The compounds are either solubilized in DMSO or in PBS. The IC50 corresponds to the concentration of compounds leading to a killing of 50% of the CHO cells after 24 hours of incubation.

[7] = system: strain IV2570060 - Escherichia coli cattle (sensible); experiment: MIC of antibiotics in the presence and absence of test compound, veterinary strains; assay type: cell-based; conditions: compound at the Concentration (μM) (4-50)
Method: (§4) For each strain and each antibiotic, the MICs were determined in the presence and in the absence of one test compound.

[8] = system: strain IV2570533 - Escherichia coli cattle (resistant); experiment: as above; assay type: cell-based; conditions: compound at the Concentration (μM) (0.896-12.6)
Method: as §4

[9] = Tolerance in mice, intraperitoneal route; assay type: in vivo; conditions: day 2, Compound 5 8.8 mg/kg, 8 1.46 mg/kg, 11 0.45 mg/kg, 14 0.35 mg/kg, 12 6.3 mg/kg
Method: Mice were administered with increasing doses of test compounds by intraperitoneal route.
The mice were sacrificed on day 2 after the injection of the test compound and autopsied. No morphological anomaly was observed. Liver, lung, kidney and intestine of each mouse were fixed and analysed.

[10] = system: strain IV2571418 - Escherichia coli pig (resistant); experiment: MIC of antibiotics in the presence and absence of test compound, veterinary strains; assay type: cell-based; set-up: MIC for strain IV2571418, Doxycycline in the presence of test compound: unit not given beside the values; conditions: compound at the Concentration (μM) (4-50)
Method: as §4

[11] = system: AB1; experiment: MIC of antibiotics ± test compound (MIC ratio), micro-broth dilution; assay type: cell-based, Acinetobacter baumannii; conditions: compound at MIC/4
Method: as §1, §2, §3

[12] = system: ATCC 19606; experiment: as above; assay type: cell-based, Acinetobacter baumannii; conditions: compound at MIC/4
Method: as §1, §2, §3

[13] = system: ATCC 13048; experiment: MIC by broth dilution (intrinsic MIC); assay type: cell-based; conditions: Klebsiella aerogenes, ATCC13048; Enterobacter ATCC 13048
Method: as §1

[14] = system: AB1; experiment: MIC by broth dilution (intrinsic MIC); assay type: cell-based; conditions: Acinetobacter baumannii
Method: as §1

[15] = system: AG100; experiment: MIC by broth dilution (intrinsic MIC); assay type: cell-based; conditions: Escherichia coli AG100
Method: as §1

[16] = system: ATCC 19606; experiment: MIC by broth dilution (intrinsic MIC); assay type: cell-based; conditions: Acinetobacter baumannii, ATCC19606; Acinetobacter ATCC 19606
Method: as §1

[17] = system: PA124; experiment: MIC by broth dilution (intrinsic MIC); assay type: cell-based; conditions: Pseudomonas aeruginosa
Method: as §1

[18] = system: Ea27; experiment: MIC by broth dilution (intrinsic MIC); assay type: cell-based; conditions: Klebsiella aerogenes; Enterobacter Ea27
Method: as §1

[19] = system: PAO1; experiment: MIC by broth dilution (intrinsic MIC); assay type: cell-based; conditions: Pseudomonas aeruginosa
Method: as §1

Row | Compound | MIC ratio Chloramphenicol E. aerogenes ATCC13048 [1] | MIC ratio Doxycycline E. aerogenes ATCC13048 [1] | MIC ratio Oxacillin E. aerogenes ATCC13048 [1] | MIC ratio Chloramphenicol E. aerogenes CM64 [2] | MIC ratio Oxacillin E. aerogenes CM64 [2] | MIC ratio Chloramphenicol E. aerogenes Ea27 [3] | MIC ratio Doxycycline E. aerogenes Ea27 [3] | MIC ratio Oxacillin E. aerogenes Ea27 [3] | MIC for strain IV2570060, Doxycycline in the presence of test compound [7] | MIC for strain IV2570060, Tylosine in the presence of test compound [7] | MIC for strain IV2570533, Doxycycline in the presence of test compound [8] | MIC for strain IV2570533, Tylosine in the presence of test compound [8] | tissue anomaly (liver, lung, kidney, intestine) [9] | MIC for strain IV2571418, Doxycycline in the presence of test compound [10] | MIC for strain IV2571418, Tylosine in the presence of test compound [10] | MIC ratio Cefepime Acinetobacter baumannii AB1 [11] | MIC ratio Chloramphénicol Acinetobacter baumannii AB1 [11] | MIC ratio Doxycycline Acinetobacter baumannii AB1 [11] | MIC ratio Tetracycline Acinetobacter baumannii AB1 [11] | MIC ratio Cefepime Acinetobacter baumannii ATCC19606 [12] | other results
1 | CC(C)=CCCC(C)=CCNCCCN(CCCN)CCCN (racemic) [Compound 11, {3-[Bis-(3-amino-propyl)-amino]-propyl}-(3,7-dimethyl-octa-2,6-dienyl)-amine] | >32 | 64 | >8 | 16 | >8 | >4 | 32 | 1 | 0.0625 | 4 | 1 | 4 | no significant tissue anomaly | 2 | 4 | 1 | 16 | 2 | 2 | 4-8 | sensitivity of strains to chloramphenicol ([4]; Pseudomonas and Actinebacter strains): greatly increased the sensitivity; sensitivity to tetracycline, Pseudomonas and Actinebacter strains ([4]; tetracycline): increased the sensitivity; sensitivity for chloramphenicol, nalidixic acid, doxycycline and oxacillin ([5]; Enterobacter Salmonella and Escherichia strains): increased the sensitivity; sensitivity to tetracycline, Enterobacter, Salmonella and E. coli strains ([5]; tetracycline, data not shown): such an increase was not observed; IC50 [6]: 0.282 mM; MIC ratio Chloramphénicol Acinetobacter baumannii ATCC19606 [12]: 8; MIC ratio Doxycycline Acinetobacter baumannii ATCC19606 [12]: 1; MIC ratio Tetracycline Acinetobacter baumannii ATCC19606 [12]: 8; MIC [13]: 31 µM (≈ 10.1 µg/mL); MIC [14]: 31 µM (≈ 10.1 µg/mL); MIC [15]: 31 µM (≈ 10.1 µg/mL); MIC [16]: 62 µM (≈ 20.1 µg/mL); MIC [17]: 62 µM (≈ 20.1 µg/mL); MIC [18]: 31 µM (≈ 10.1 µg/mL); MIC [19]: 62 µM (≈ 20.1 µg/mL)
2 | CC(C)=CCC/C(C)=C/CC/C(C)=C/CNCCCN(C)CCCN [Compound 14, {3-[(3-Amino-propyl)-methyl-amino]-propyl}-((2E,6E)-3,7,11-trimethyl-dodeca-2,6,10-trienyl)-amine] | >32 | 64 | >8 | 16 | >8 | >4 | 32 | 1 | 0.0625 | 8 | 1 | 8 | no significant tissue anomaly | 2 | 4 | 1 | 16 | 2 | 4 | 4-8 | MIC ratio Chloramphénicol Acinetobacter baumannii ATCC19606 [12]: 8; MIC ratio Doxycycline Acinetobacter baumannii ATCC19606 [12]: 1; MIC ratio Tetracycline Acinetobacter baumannii ATCC19606 [12]: 4; MIC [13]: 31 µM (≈ 10.8 µg/mL); MIC [14]: 62 µM (≈ 21.7 µg/mL); MIC [15]: 62 µM (≈ 21.7 µg/mL); MIC [16]: 62 µM (≈ 21.7 µg/mL); MIC [17]: 250 µM (≈ 87.4 µg/mL); MIC [18]: 31 µM (≈ 10.8 µg/mL); MIC [19]: 250 µM (≈ 87.4 µg/mL)
